According to patent US20050208139A1 (Ascend Therapeutics, Inc., priority 2004, published 2005):

How the values were obtained:
[1] = Effects of UV light on isomerization (Example 4); format: physicochemical; settings: room temperature
[2] = test system: human breast tumors grown subcutaneously in mice; settings: transdermally delivered; cited from earlier work
[3] = test system: estrogen receptors; settings: in vitro; cited from earlier work
[4] = in vivo; cited from earlier work
[5] = 254 nm, T0, degradation impurity (phenanthrene derivative)

## CCC(=C(c1ccc(O)cc1)c1ccc(OCCN(C)C)cc1)c1ccccc1 [4-hydroxy tamoxifen, 1-[4-(2-N-dimethylaminoethoxy)phenyl]-1-(4-hydroxyphenyl)-2-phenylbut-1-ene]
[1]; 254 nm, 5 min
  % E: 3.0%
  % Z: 91.5%
  % imp 1: 0.0%
  % imp 2: 5.5%
[1]; 254 nm, 10 min
  % E: 3.1%
  % Z: 90.5%
  % imp 1: 0.0%
  % imp 2: 6.3%
[1]; 254 nm, 15 min
  % E: 3.5%
  % Z: 86.5%
  % imp 1: 1.3%
  % imp 2: 8.7%
[1]; 254 nm, 30 min
  % E: 5.7%
  % Z: 74.4%
  % imp 1: 4.3%
  % imp 2: 15.6%
[1]; 254 nm, 45 min
  % E: 6.7%
  % Z: 65.1%
  % imp 1: 7.8%
  % imp 2: 20.4%
[1]; 254 nm, 1 h
  % E: 7.2%
  % Z: 56.6%
  % imp 1: 10.2%
  % imp 2: 26.0%
[1]; 254 nm, 1 h 15
  % E: 7.5%
  % Z: 52.7%
  % imp 1: 11.4%
  % imp 2: 28.4%
[1]; 254 nm, 1 h 30
  % E: 8.2%
  % Z: 43.5%
  % imp 1: 14.0%
  % imp 2: 34.2%
[1]; 254 nm, 1 h 45
  % E: 8.2%
  % Z: 38.2%
  % imp 1: 16.5%
  % imp 2: 37.1%
[1]; 254 nm, 2 h
  % E: 8.3%
  % Z: 32.5%
  % imp 1: 18.2%
  % imp 2: 41.0%
[1]; 254 nm, T0
  % E: 1.7%
  % Z: 98.3%
[1]; [5]
  % imp 1: 0.0%
  % imp 2: 0.0%
[1]; 380 nm, 5 min
  % E: 1.6%
  % Z: 98.4%
[1]; 380 nm, 10 min
  % E: 1.7%
  % Z: 98.3%
[1]; 380 nm, 15 min
  % E: 1.6%
  % Z: 98.4%
[1]; 380 nm, 30 min
  % E: 1.8%
  % Z: 98.2%
[1]; 380 nm, 45 min
  % E: 1.9%
  % Z: 98.1%
[1]; 380 nm, 1 h
  % E: 2.0%
  % Z: 98.0%
[1]; 380 nm, 1 h 15
  % E: 2.8%
  % Z: 97.2%
[1]; 380 nm, 1 h 30
  % E: 2.9%
  % Z: 97.1%
[1]; 380 nm, 1 h 45
  % E: 2.9%
  % Z: 97.1%
[1]; 380 nm, 2 h
  % E: 3.3%
  % Z: 96.7%
[1]; 380 nm, T0
  % E: 1.6%
  % Z: 98.4%
[1]; UV light
  isomerization process at 254 nm compared with 380 nm: faster than at 380 nm
[1]
  time in which the isomerization process can be observed under UV light: 5 min
[2]
  anti-tumor effect: exhibits an anti-tumor effect
[3]
  potency as measured by binding affinity to estrogen receptors, compared with tamoxifen: more potency than tamoxifen
[4]
  distribution after percutaneous administration: can concentrate in local breast tumors, with very little systemic distribution
